The results in this text go back to ChEMBL document CHEMBL1201862, “PubChem BioAssay data set” (2004).

Among the test systems are A549; CAKI-1; K562; SK-MEL-5; SNB-19; LOX IMVI; SN12C; HT-29; NCI-H226; A498; RPMI-8226; SF-539; RXF 393; NCI-H522; COLO 205; NCI-H23; HCT-15; OVCAR-8; HOP-62; SNB-75.
Holding throughout (experiment): DTP human tumour cell line panel, 48 h

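Assay format: 96-well plates, 48-hour exposure. GI50 marks 50% less growth.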 Active and inactive are the calls of the source. Cut-off read from the data, not from the text of the source: active = GI50 up to about 1.1 µM and inactive = higher. Where only a bound is given, the exact number is not on record here.

For `COC(=O)C(Cc1ccc2c(c1)OCO2)(NC(=O)c1ccccc1)P(=O)(OC)OC` (stereo not given), the GI50 in the assay on A549, with CAKI-1, in the assay on K562, in the assay on SK-MEL-5, in the assay on SNB-19 and in the assay with LOX IMVI was > 100 µM (inactive) each time. Also, the GI50 with SN12C, in the assay on HT-29, in the assay on NCI-H226, in the assay with A498, in the assay with RPMI-8226 and with SF-539 was > 100 µM (inactive) each time. Besides, the GI50 is > 100 µM (inactive) with RXF 393; > 100 µM (inactive) with NCI-H522; > 100 µM (inactive) in the assay with COLO 205; > 100 µM (inactive) in the assay on NCI-H23; > 100 µM in the assay with HCT-15; > 100 µM (inactive) with OVCAR-8. For the same molecule, the GI50 with HOP-62 and in the assay on SNB-75 was > 100 µM (inactive) each time.

Usually GI50 stands for the concentration at which growth is held to half of that of the control.
